{
  "source": "patent US6982348B2",
  "about": "“Aminoethanol derivatives” (Takeda Pharmaceutical Company Limited, priority 2001, dated 2006)",
  "data": [
    {"units": {"melting point": "°C"}, "values": [
      {"smiles": "O=C(N[C@H](Cc1cccc(OC(F)(F)C(F)F)c1)[C@@H](O)c1ccc(-c2cccc(CO)c2)cc1)c1cccc2c1C=CCCC2", "note": "(racemic) [Example 303, N-[(1RS,2SR)-2-[3′-(hydroxymethyl)[1,1′-biphenyl]-4-yl]-2-hydroxy-1-[3-(1,1,2,2-tetrafluoroethoxy)benzyl]ethyl]-6,7-dihydro-5H-benzo[a]cycloheptene-1-carboxamide]", "melting point": "178 to 179"},
      {"smiles": "O=C(N[C@H](Cc1cccc(OC(F)(F)C(F)F)c1)[C@@H](O)c1ccc(-c2ccc(CO)cc2)cc1)c1cccc2c1C=CCCC2", "note": "(racemic) [Example 304, N-[(1RS,2SR)-2-[4′-(hydroxymethyl)[1,1′-biphenyl]-4-yl]-2-hydroxy-1-[3-(1,1,2,2-tetrafluoroethoxy)benzyl]ethyl]-6,7-dihydro-5H-benzo[a]cycloheptene-1-carboxamide]", "melting point": "189 to 191"},
      {"smiles": "CC1(C)CCC=Cc2c(C(=O)N[C@H](Cc3cccc(OC(F)(F)C(F)F)c3)[C@@H](O)c3ccc(F)cc3)cccc21", "note": "(racemic) [Example 305, N-[(1RS,2SR)-2-(4-fluorophenyl)-2-hydroxy-1-[3-(1,1,2,2-tetrafluoroethoxy)benzyl]ethyl]-5,5-dimethyl-6,7-dihydro-5H-benzo[a]cycloheptene-1-carboxamide]", "melting point": "101 to 104"},
      {"smiles": "COC(=O)c1ccc([C@@H](O)[C@H](Cc2cccc(OC(F)(F)C(F)F)c2)NC(=O)OC(C)(C)C)cc1", "note": "(racemic) [Example 308, methyl 4-[(1RS,2SR)-2-[(tert-butoxycarbonyl)amino]-1-hydroxy-3-[3-(1,1,2,2-tetrafluoroethoxy)phenyl]propyl]benzoate]", "melting point": "148 to 150"},
      {"smiles": "COC(=O)c1ccc([C@@H](O)[C@H](Cc2cccc(OC(F)(F)C(F)F)c2)NC(=O)c2cccc3c2C=CCCC3)cc1", "note": "(racemic) [Example 309, methyl 4-[(1RS,2SR)-2-[(6,7-dihydro-5H-benzo[a]cyclohepten-1-ylcarbonyl)amino]-1-hydroxy-3-[3-(1,1,2,2-tetrafluoroethoxy)phenyl]propyl]benzoate]", "melting point": "137 to 138"},
      {"smiles": "O=C(O)c1ccc([C@@H](O)[C@H](Cc2cccc(OC(F)(F)C(F)F)c2)NC(=O)c2cccc3c2C=CCCC3)cc1", "note": "(racemic) [Example 310, 4-[(1RS,2SR)-2-[(6,7-dihydro-5H-benzo[a]cyclohepten-1-ylcarbonyl)amino]-1-hydroxy-3-[3-(1,1,2,2-tetrafluoroethoxy)phenyl]propyl]benzoic acid]", "melting point": "210 to 211"},
      {"smiles": "NC(=O)c1ccc([C@H](O)[C@@H](Cc2cccc(OC(F)(F)C(F)F)c2)NC(=O)c2cccc3c2C=CCCC3)cc1", "note": "(racemic) [Example 311, N-[(1RS,2SR)-2-[4-(aminocarbonyl)phenyl]-2-hydroxy-1-[3-(1,1,2,2-tetrafluoroethoxy)benzyl]ethyl]-6,7-dihydro-5H-benzo[a]cycloheptene-1-carboxamide]", "melting point": "197 to 199"},
      {"smiles": "CN(C)C(=O)c1ccc([C@H](O)[C@@H](Cc2cccc(OC(F)(F)C(F)F)c2)NC(=O)c2cccc3c2C=CCCC3)cc1", "note": "(racemic) [Example 312, N-[(1RS,2SR)-2-[4-[(dimethylamino)carbonyl]phenyl]-2-hydroxy-1-[3-(1,1,2,2-tetrafluoroethoxy)benzyl]ethyl]-6,7-dihydro-5H-benzo[a]cycloheptene-1-carboxamide]", "melting point": "165 to 166"},
      {"smiles": "O=C(N[C@H](Cc1cccc(OC(F)(F)C(F)F)c1)[C@@H](O)c1ccc(C(=O)N2CCCCC2)cc1)c1cccc2c1C=CCCC2", "note": "(racemic) [Example 313, N-[(1RS,2SR)-2-hydroxy-2-[4-(piperidinocarbonyl)phenyl]-1-[3-(1,1,2,2-tetrafluoroethoxy)benzyl]ethyl]-6,7-dihydro-5H-benzo[a]cycloheptene-1-carboxamide]", "melting point": "176 to 177"}
    ]}
  ]
}
